In patent US20110071158A1, “NEW COMPOUNDS” (BOEHRINGER INGELHEIM INTERNATIONAL GMBH, priority 2009, published 2011):

molecular target: T1, PTK2 enzyme (Homo sapiens, UniProt Q05397); experiment: PTK2 enzyme test, Assay 1 (DELFIA, poly-Glu-Tyr substrate, antibody PT60); type: biochemical; settings: Assay 1 (values without *); 1 h pre-incubation, 2% DMSO
T1 construct: purchased Invitrogen PV3832
Method: This test uses active PTK2 enzyme (Invitrogen Code PV3832) and poly-Glu-Tyr (4:1, Sigma P-0275) as the kinase substrate. The kinase activity is detected through the phosphorylation of the substrate in a DELFIA™ assay. The phosphorylated substrate is detected with the europium-labelled phosphotyrosine antibody PT60 (Perkin Elmer, No.: AD00400).
In order to determine concentration-activity curves with PTK2-inhibitors the compounds are serially diluted in 10% DMSO/H2O and 10 μL of each dilution are placed in each well of a 96-well microtitre plate (clear plate with a U-shaped base, Greiner No. 650101) (the inhibitors are tested in duplicates) and mixed with 10 μL/well of PTK2 kinase (0.01 μg/well). PTK2 kinase has been correspondingly diluted beforehand with kinase dilution buffer (20 mM TRIS/HCl pH 7.5, 0.1 mM EDTA, 0.1 mM EGTA, 0.286 mM sodium orthovanadate, 10% glycerol with the addition of freshly prepared BSA (fraction V, 1 mg/mL) and DTT (1 mM)). The test compound and the PTK2 kinase are pre-incubated for 1 h at RT and shaken at 500 revolutions per min. The reaction is started by the addition of 10 μL/well poly (Glu,Tyr) substrate (25 μg/well poly (Glu, Tyr), 0.05 μg/well biotinylated poly (Glu,Tyr) dissolved in 250 mM TRIS/HCl pH 7.5, 9 mM DTT)—the final concentration of DMSO is 2%. Then 20 μL of ATP Mix (30 mM TRIS/HCl pH 7.5, 0.02% Brij, 0.2 mM sodium orthovanadate, 10 mM magnesium acetate, 0.1 mM EGTA, 1× phosphatase inhibitor cocktail 1 (Sigma, No.: P2850), 50 μM ATP (Sigma, No.: A3377; 15 mM stock solution)) are added. After 1 h of kinase reaction (the plates are shaken at 500 rpm), the reaction is stopped by the addition of 12 μL/well 100 mM EDTA, pH 8.0 and shaken for a further 5 min at RT (500 rpm). 55 μL of the reaction mixture are transferred into a streptavidin plate (Strepta Well High Bind (transparent, 96-well) made by Roche, No.: 11989685001) and incubated for 1 h at RT (shaking at 500 rpm). Then the microtitre plate is washed three times with 200 μL/well D-PBS (Invitrogen, No. 14190). 100 μL of a solution containing DELFIA Eu-N1 Anti-Phosphotyrosine PT60 antibody (Perkin Elmer, No.: AD0040, diluted 1:2000 in DELFIA test buffer (Perkin Elmer, No.: 1244-111)) is then added and the mixture is incubated for 1 h at RT (shaking at 500 rpm). Then the plate is washed three times with 200 μL/well DELFIA washing buffer (Perkin Elmer, No.: 1244-114), 200 μL/well strengthening solution (Perkin Elmer, No.: 1244-105) are added and the mixture is incubated for 10 min at RT (shaking at 300 rpm).
The time-delayed europium fluorescence is then measured in a microtitre plate reader (VICTOR^3, Perkin Elmer). […] Wells that contain test buffer instead of enzyme are used as a control of the background kinase activity.
The IC50 values are determined from analyses of the concentration activity by iterative calculation with the aid of a sigmoid curve analysis algorithm (FIFTY, based on Graph PAD Prism Version 3.03) with a variable Hill coefficient.

T1 sequence (Q05397 whole entry): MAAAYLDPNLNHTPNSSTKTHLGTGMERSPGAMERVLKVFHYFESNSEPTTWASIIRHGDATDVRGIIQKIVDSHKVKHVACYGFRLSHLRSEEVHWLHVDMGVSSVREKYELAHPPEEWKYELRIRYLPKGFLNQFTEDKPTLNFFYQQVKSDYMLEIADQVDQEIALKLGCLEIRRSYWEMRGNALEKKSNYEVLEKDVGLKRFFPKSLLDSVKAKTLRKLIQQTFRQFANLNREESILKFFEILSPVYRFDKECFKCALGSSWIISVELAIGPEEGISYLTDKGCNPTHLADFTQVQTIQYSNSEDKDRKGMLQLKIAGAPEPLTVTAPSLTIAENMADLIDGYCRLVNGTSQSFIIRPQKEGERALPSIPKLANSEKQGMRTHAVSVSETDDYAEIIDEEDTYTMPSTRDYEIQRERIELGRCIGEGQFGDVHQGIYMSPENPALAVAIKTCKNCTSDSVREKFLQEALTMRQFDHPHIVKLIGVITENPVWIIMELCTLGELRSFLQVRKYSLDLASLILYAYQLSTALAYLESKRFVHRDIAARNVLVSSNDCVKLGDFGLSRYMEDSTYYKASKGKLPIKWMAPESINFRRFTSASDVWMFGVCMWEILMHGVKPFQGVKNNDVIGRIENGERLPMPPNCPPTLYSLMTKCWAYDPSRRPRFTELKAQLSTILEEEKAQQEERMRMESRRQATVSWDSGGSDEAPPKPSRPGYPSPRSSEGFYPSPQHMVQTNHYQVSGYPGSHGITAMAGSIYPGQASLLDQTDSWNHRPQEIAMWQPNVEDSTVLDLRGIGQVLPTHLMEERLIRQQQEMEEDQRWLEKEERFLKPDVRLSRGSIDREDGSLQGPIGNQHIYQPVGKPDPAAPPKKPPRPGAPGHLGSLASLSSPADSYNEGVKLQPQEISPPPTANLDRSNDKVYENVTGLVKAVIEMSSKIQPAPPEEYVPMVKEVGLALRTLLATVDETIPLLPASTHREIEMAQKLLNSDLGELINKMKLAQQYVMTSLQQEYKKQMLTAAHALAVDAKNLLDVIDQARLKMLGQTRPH

IC50 [nM] | Structure (SMILES)
1 | COc1cc(C(=O)NC2CCN(C)CC2)ccc1Nc1ncc(C(F)(F)F)c(N[C@@H]2CCCC[C@@H]2N(OC)C(C)=O)n1 [Example I-114]
1 | COc1cc(CN2CCOCC2)ccc1Nc1ncc(C(F)(F)F)c(N[C@@H]2CCCC[C@H]2NC(C)=O)n1 [Example I-115]
1 | COc1cc(CN2CCN(C)CC2)ccc1Nc1ncc(C(F)(F)F)c(N[C@@H]2CCCC[C@H]2NC(C)=O)n1 [Example I-116]
1 | COc1cc(CN2CCCC2)ccc1Nc1ncc(C(F)(F)F)c(N[C@@H]2CCCC[C@H]2NC(C)=O)n1 [Example I-117]
1 | COc1cc(CN(C)C)ccc1Nc1ncc(C(F)(F)F)c(N[C@@H]2CCCC[C@H]2NC(C)=O)n1 [Example I-118]
6 | CON[C@@H]1CCCC[C@H]1Nc1nc(Nc2ccc(C(=O)NC3CCN(C)CC3)cc2OC)ncc1C(F)(F)F [Example I-119]
2 | CCC(=O)N[C@@H]1CCCC[C@H]1Nc1nc(Nc2cc(F)c(C(=O)NC3CCN(C)CC3)cc2OC)ncc1C(F)(F)F [Example I-120]
3 | COc1cc(C(=O)NC2CCN(C)CC2)c(F)cc1Nc1ncc(C(F)(F)F)c(N[C@@H]2CCCC[C@H]2NC(=O)C(C)C)n1 [Example I-121]
0.73 | CCN1CCC(NC(=O)c2ccc(Nc3ncc(C(F)(F)F)c(N[C@@H]4CCC[C@H]4N(C)S(C)(=O)=O)n3)c(OC)c2)CC1 [Example I-129]
0.93 | COc1cc(C(=O)NOCCN(C)C)ccc1Nc1ncc(C(F)(F)F)c(N[C@@H]2CCCC[C@H]2N(C)S(C)(=O)=O)n1 [Example I-132]
1 | COc1cc(C(=O)NC2CCN(C)CC2)c(F)cc1Nc1ncc(C(F)(F)F)c(N[C@@H]2CCCC[C@H]2NS(C)(=O)=O)n1 [Example I-141]
0.94 | COc1cc(N2CCN(C)CC2)ccc1Nc1ncc(C(F)(F)F)c(N[C@@H]2CCCC[C@H]2N(C)S(C)(=O)=O)n1 [Example I-143]
3 | COc1cc(N2CCN(C(C)(C)C)CC2)ccc1Nc1ncc(C(F)(F)F)c(N[C@@H]2CCCC[C@H]2N(C)S(C)(=O)=O)n1 [Example I-145]
2 | CCN([C@@H]1CCCC[C@H]1Nc1nc(Nc2ccc(C(=O)NC3CCCN(C)C3)cc2OC)ncc1C(F)(F)F)S(C)(=O)=O (some centres unmarked) [Example I-149]
2 | COc1cc(N2CCN(CC(=O)N(C)C)CC2)ccc1Nc1ncc(C(F)(F)F)c(N[C@@H]2CCCC[C@H]2N(C)S(C)(=O)=O)n1 [Example I-150]
1 | COc1cc(C(=O)NC2CCN(C)CC2)c(F)cc1Nc1ncc(C(F)(F)F)c(N[C@@H]2CCCC[C@H]2NC(C)=O)n1 [Example I-154]
2 | CCS(=O)(=O)N(C)[C@@H]1CCCC[C@H]1Nc1nc(Nc2ccc(C(=O)NCCN(C)C)cc2OC)ncc1C(F)(F)F [Example I-156]
0.69 | COc1cc([C@@H](O)CO)ccc1Nc1ncc(C(F)(F)F)c(N[C@@H]2CCCC[C@H]2N(C)S(C)(=O)=O)n1 [Example I-157]
1 | CCN1CCC(NC(=O)c2cc(OC)c(Nc3ncc(C(F)(F)F)c(N[C@@H]4CCCC[C@H]4N(C)C(C)=O)n3)cc2F)CC1 [Example I-161]

IC50 [nM] | Structure (SMILES)
1 | COc1cc(C(=O)NC2CCN(C)CC2)ccc1Nc1ncc(Cl)c(N[C@@H]2CCCC[C@H]2N(C)S(C)(=O)=O)n1 [Example I-162]
2 | COc1cc(C(=O)NC2CCCN(C)C2)ccc1Nc1ncc(Cl)c(N[C@@H]2CCCC[C@H]2N(C)S(C)(=O)=O)n1 (some centres unmarked) [Example I-163]
3 | COCCN1CCC(NC(=O)c2cc(OC)c(Nc3ncc(Cl)c(N[C@@H]4CCCC[C@H]4N(C)S(C)(=O)=O)n3)cc2Cl)CC1 [Example I-167]
3 | COc1cc(C(=O)NC2CCN(C)CC2)c(Cl)cc1Nc1ncc(Cl)c(N[C@@H]2CCCC[C@H]2N(C)S(C)(=O)=O)n1 [Example I-168]
4 | CCN1CCC(NC(=O)c2cc(OC)c(Nc3ncc(Cl)c(N[C@@H]4CCCC[C@H]4N(C)S(C)(=O)=O)n3)cc2F)CC1 [Example I-169]
2 | COc1cc(C(=O)NCCN(C)C)c(F)cc1Nc1ncc(Cl)c(N[C@@H]2CCC[C@H]2N(C)S(C)(=O)=O)n1 [Example I-170]
2 | COc1cc(C(=O)NCCN(C)C)c(Cl)cc1Nc1ncc(Cl)c(N[C@@H]2CCCC[C@H]2N(C)S(C)(=O)=O)n1 [Example I-171]
2 | COc1cc(C(=O)NCCN(C)C)c(Cl)cc1Nc1ncc(Br)c(N[C@@H]2CCCC[C@H]2N(C)S(C)(=O)=O)n1 [Example I-172]
2 | COc1cc(Nc2ncc(C(F)(F)F)c(N[C@@H]3CCCC[C@H]3N(C)S(C)(=O)=O)n2)ccc1C(=O)NC1CCN(C)CC1 [Example I-173]
4 | COc1cc(C(=O)NC2CCN(C)CC2)c(F)cc1Nc1ncc(Cl)c(N[C@@H]2CCCC[C@H]2N(C)S(C)(=O)=O)n1 [Example I-174]
0.64 | COc1cc(C(=O)NC2CCN(C)CC2)ccc1Nc1ncc(C(C)C)c(N[C@@H]2CCCC[C@H]2N(C)S(C)(=O)=O)n1 [Example I-175]
2 | COc1cc(Nc2ncc(C(F)(F)F)c(N[C@@H]3CCCC[C@H]3N(C)S(C)(=O)=O)n2)ccc1NC(C)=O [Example I-177]
4 | COc1cc(N2CCN(C(C)(C)C)CC2)ccc1Nc1ncc(Br)c(N[C@@H]2CCCC[C@H]2N(C)S(C)(=O)=O)n1 [Example I-182]
4 | COc1cc(N2CCN(C(C)(C)C)CC2)ccc1Nc1ncc(Cl)c(N[C@@H]2CCCC[C@H]2N(C)S(C)(=O)=O)n1 [Example I-183]
4 | CC(=O)Nc1ccc(Nc2ncc(C(F)(F)F)c(N[C@@H]3CCCC[C@H]3N(C)S(C)(=O)=O)n2)cc1C [Example I-186]
6 | CC(=O)Nc1ccc(Nc2ncc(C(F)(F)F)c(N[C@@H]3CCCC[C@H]3N(C)S(C)(=O)=O)n2)cc1Cl [Example I-187]
16 | CCN([C@@H]1CCCC[C@H]1Nc1nc(Nc2ccc(NC(C)=O)c(C)c2)ncc1C(F)(F)F)S(C)(=O)=O [Example I-188]
9 | CCN([C@@H]1CCCC[C@H]1Nc1nc(Nc2ccc(NC(C)=O)c(OC)c2)ncc1C(F)(F)F)S(C)(=O)=O [Example I-189]
13 | COc1cc(Nc2ncc(Cl)c(N[C@@H]3CCCC[C@H]3NC(C)=O)n2)cc(OC)c1OC [Example I-190]
